biological target: T1, h-11βHSD1 (Homo sapiens, UniProt P28845); test: 11βHSD1 enzyme assay (SPA, 3H-cortisone to 3H-cortisol); format: biochemical; details: extract of yeast transformed with h-11βHSD1; 120 nM 3H-cortisone, 4 mM β-NADPH, 60 min at 30° C.
T1 construct: made in house
Method: ^3H-cortisone and anti-rabbit Ig coated scintillation proximity assay (SPA) beads were purchased from Amersham Pharmacia Biotech, β-NADPH was from Sigma and rabbit anti-cortisol antibodies were from Fitzgerald. An extract of yeast transformed with h-11βHSD1 (Hutt et al., FEBS Lett, 441, 25 (1998)) was used as the source of enzyme. The test compounds were dissolved in DMSO (10 mM). All dilutions were performed in a buffer containing 50 mM TRIS-HCl (Sigma Chemical Co), 4 mM EDTA (Sigma Chemical Co), 0.1% BSA (Sigma Chemical Co), 0.01% Tween-20 (Sigma Chemical Co) and 0.005% bacitracin (Novo Nordisk A/S), pH=7.4. Optiplate 96 wells plates were supplied by Packard. The amount of ^3H-cortisol bound to the SPA beads was measured on TopCount NXT, Packard.
h-11βHSD1, 120 nM ^3H-cortisone, 4 mM β-NADPH, antibody (1:200), serial dilutions of test compound and SPA particles (2 mg/well) were added to the wells. The reaction was initiated by mixing the different components and was allowed to proceed under shaking for 60 min at 30° C. The reaction was stopped be the addition of 10 fold excess of a stopping buffer containing 500 μM carbenoxolone and 1 μM cortisone. Data was analysed using GraphPad Prism software.

T1 sequence (P28845 whole entry): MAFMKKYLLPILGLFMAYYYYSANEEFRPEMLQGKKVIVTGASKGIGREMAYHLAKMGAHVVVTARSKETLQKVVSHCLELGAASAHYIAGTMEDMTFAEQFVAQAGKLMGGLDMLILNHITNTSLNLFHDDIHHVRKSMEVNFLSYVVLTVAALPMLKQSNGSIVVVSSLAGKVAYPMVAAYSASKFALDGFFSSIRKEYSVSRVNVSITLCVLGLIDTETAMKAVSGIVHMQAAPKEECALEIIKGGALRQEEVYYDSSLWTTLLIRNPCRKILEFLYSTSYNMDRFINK

| SMILES | IC50 [nM] |
| --- | --- |
| O=C(c1ccc2c(c1)-c1ccccc1C2)N1C2CCC1CC(O)C2 (single isomer, unassigned) [Example 1, (9H-Fluoren-3-yl)-(cis 3-hydroxy-8-aza-bicyclo[3.2.1]oct-8-yl)-methanone] | 8 |
| O=C(c1ccc2c(c1)-c1ccccc1C2)N1C2CCC1CC(O)C2 (single isomer, unassigned) [Example 2, (9H-Fluoren-3-yl)-(trans 3-hydroxy-8-aza-bicyclo[3.2.1]oct-8-yl)-methanone] | 246 |
| Cn1c2ccccc2c2cc(C(=O)N3C4CCC3CC(O)C4)ccc21 (centres unmarked) [Example 3, (3-Hydroxy-8-aza-bicyclo[3.2.1]oct-8-yl)-(9-methyl-9H-carbazol-3-yl)-methanone] | 6 |
| O=C(c1ccc2[nH]c3ccccc3c2c1)N1C2CCC1CC(O)C2 (centres unmarked) [Example 4, (9H-Carbazol-3-yl)-(3-hydroxy-8-aza-bicyclo[3.2.1]oct-8-yl)-methanone] | 30 |
| O=C(NC1C2CC3CC1CC(O)(C3)C2)c1ccc2[nH]c3ccccc3c2c1 (centres unmarked) [Example 11, 9H-Carbazole-3-carboxylic acid (5-hydroxy-adamantan-2-yl)-amide] | 29 |
| CN(C(=O)c1ccc2[nH]c3ccccc3c2c1)C1C2CC3CC1CC(O)(C3)C2 (centres unmarked) [Example 13, 9H-Carbazole-3-carboxylic acid (5-hydroxy-adamantan-2-yl)-methyl-amide] | 76 |

The next lines start with the values.

| IC50 [nM] | SMILES |
| --- | --- |
| 64 | Cn1c2ccccc2c2cc(C(=O)N3CC4CC3CC4O)ccc21 (centres unmarked) [Example 5, (5-Hydroxy-2-aza-bicyclo[2.2.1]hept-2-yl)-(9-methyl-9H-carbazol-3-yl)-methanone] |
| 360 | Cn1c2ccccc2c2cc(C(=O)N3CC4CC(O)CC3C4)ccc21 (centres unmarked) [Example 7, (3-Hydroxy-6-aza-bicyclo[3.2.1]oct-6-yl)-(9-methyl-9H-carbazol-3-yl)-methanone] |
| 274 | Cn1c2ccccc2c2cc(C(=O)N3CC4CC(O)C3C4)ccc21 (centres unmarked) [Example 9, (6-Hydroxy-2-aza-bicyclo[2.2.1]hept-2-yl)-(9-methyl-9H-carbazol-3-yl)-methanone] |
| 1030 | O=C(c1ccc2[nH]c3ccccc3c2c1)N1CC2CC(O)C1C2 (centres unmarked) [Example 10, (9H-Carbazol-3-yl)-(6-hydroxy-2-aza-bicyclo[2.2.1]hept-2-yl)-methanone] |
| 41 | CN(C(=O)c1ccc2c(c1)c1ccccc1n2C)C1C2CC3CC1CC(O)(C3)C2 (centres unmarked) [Example 12, 9-Methyl-9H-carbazole-3-carboxylic acid (5-hydroxy-adamantan-2-yl)-methyl-amide] |
